This is an account of results in ChEMBL document CHEMBL3526024, “Oral availability of cefadroxil depends on ABCC3 and ABCC4” (Drug Metab Dispos, 2012).

Where only a bound is given, the exact number is not on record here.

In series [1] the target is T1, ATP-binding cassette sub-family C member 4 (Homo sapiens, UniProt O15439).
T1 sequence (O15439 whole entry): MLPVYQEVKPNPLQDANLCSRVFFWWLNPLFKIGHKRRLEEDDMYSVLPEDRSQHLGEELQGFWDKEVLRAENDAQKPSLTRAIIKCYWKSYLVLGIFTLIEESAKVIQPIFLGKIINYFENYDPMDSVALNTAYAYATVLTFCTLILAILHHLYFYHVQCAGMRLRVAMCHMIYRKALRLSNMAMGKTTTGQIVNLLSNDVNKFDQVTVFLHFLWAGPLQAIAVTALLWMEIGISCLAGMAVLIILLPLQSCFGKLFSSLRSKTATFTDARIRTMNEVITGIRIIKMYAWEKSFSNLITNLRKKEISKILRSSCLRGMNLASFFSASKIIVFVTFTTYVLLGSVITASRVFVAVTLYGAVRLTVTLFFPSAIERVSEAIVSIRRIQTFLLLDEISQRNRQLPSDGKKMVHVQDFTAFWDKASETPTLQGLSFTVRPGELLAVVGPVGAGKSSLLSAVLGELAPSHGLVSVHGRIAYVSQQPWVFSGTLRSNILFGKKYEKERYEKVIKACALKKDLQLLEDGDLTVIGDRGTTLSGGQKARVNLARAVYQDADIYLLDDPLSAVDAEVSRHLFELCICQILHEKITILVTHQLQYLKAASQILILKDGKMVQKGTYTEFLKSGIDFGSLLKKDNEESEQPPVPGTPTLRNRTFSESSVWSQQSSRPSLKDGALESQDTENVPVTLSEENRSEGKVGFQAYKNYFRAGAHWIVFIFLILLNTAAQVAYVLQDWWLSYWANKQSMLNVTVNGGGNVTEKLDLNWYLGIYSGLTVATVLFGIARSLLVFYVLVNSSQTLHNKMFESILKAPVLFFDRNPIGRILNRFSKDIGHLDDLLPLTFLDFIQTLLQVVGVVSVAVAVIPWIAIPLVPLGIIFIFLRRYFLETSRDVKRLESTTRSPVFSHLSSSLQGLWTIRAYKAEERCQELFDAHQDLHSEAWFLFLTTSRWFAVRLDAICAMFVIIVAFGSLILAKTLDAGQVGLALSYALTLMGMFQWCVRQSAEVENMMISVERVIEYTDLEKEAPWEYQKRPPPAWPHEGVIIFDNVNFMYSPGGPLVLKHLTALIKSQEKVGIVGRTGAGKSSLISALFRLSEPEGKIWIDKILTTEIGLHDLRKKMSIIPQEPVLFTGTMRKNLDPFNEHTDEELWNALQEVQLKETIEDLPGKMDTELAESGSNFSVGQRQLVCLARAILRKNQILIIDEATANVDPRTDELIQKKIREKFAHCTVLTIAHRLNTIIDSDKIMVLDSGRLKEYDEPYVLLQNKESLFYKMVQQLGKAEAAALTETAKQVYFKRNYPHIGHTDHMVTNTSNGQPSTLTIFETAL
In words: Inhibition of recombinant human ABCC4 expressed in baculovirus infected insect Sf21 cell plasma membrane vesicles assessed as inhibition of transporter-mediated [3H]-estradiol-17beta-glucuronide uptake by liquid scintillation counting analysis. The series is classed as ADME.

The target of series [2] is ATP-binding cassette sub-family C member 2 (Homo sapiens, UniProt Q92887). Put plainly: Inhibition of recombinant human ABCC2 expressed in insect Sf21 cell plasma membrane vesicles assessed as inhibition of transporter-mediated [3H]-estradiol-17beta-glucuronide uptake by liquid scintillation counting analysis. The series is classed as ADME, cell membranes.
The target in series [3] is T2, ATP-binding cassette sub-family C member 3 (Homo sapiens, UniProt O15438). Put plainly: Inhibition of recombinant human ABCC3 expressed in baculovirus infected insect Sf21 cell plasma membrane vesicles assessed as inhibition of transporter-mediated [3H]-estradiol-17beta-glucuronide uptake by liquid scintillation counting analysis. It counts as ADME.
In series [4] the target is T1, ATP-binding cassette sub-family C member 4. In words: Activity of recombinant human ABCC4 expressed in baculovirus infected insect Sf21 cell plasma membrane vesicles assessed as transporter-mediated drug uptake at 10 uM by liquid scintillation counting analysis in presence of ATP. The series is classed as ADME. To be noted: sf21, 10 µM, TDE = time-dependent effect.

Series [5] can be described thus: Drug uptake in bile of Abcc3/Abcc4-deficient mouse at 5 uM by liquid scintillation counting analysis. The series is classed as ADME, tissue-based. Conditions: in vivo; call rule not given here.
A short description of series [6]: Drug excretion in Abcc3-deficient mouse urine at 5 uM by liquid scintillation counting analysis. It counts as ADME, tissue-based. Conditions: in vivo.
Series [7] has as its system Jejunum. Put plainly: Drug transport across ligated jejunum in Abcc3-deficient mouse assessed as drug level in portal blood at 5 uM by liquid scintillation counting analysis. The series is classed as ADME, tissue-based.
Series [8] relates to Intestine. In words: Drug level in Abcc3/Abcc4-deficient mouse intestine at 5 uM by liquid scintillation counting analysis. It counts as ADME, tissue-based. To be noted: in vivo.
Series [9] can be described thus: Ratio of recombinant human ABCC4-mediated drug uptake in insect Sf21 cell plasma membrane vesicles to recombinant human ABCC2-mediated drug uptake in insect Sf21 cell plasma membrane vesicles. The series is classed as ADME, cell membranes.
Series [10] has as its system Jejunum. Put plainly: Drug transport across ligated jejunum in Abcc4-deficient mouse assessed as drug level in portal blood at 5 uM by liquid scintillation counting analysis. It counts as ADME, tissue-based.
The subject of series [11] is Jejunum. In words: Drug transport across ligated jejunum in Abcc3/Abcc4-deficient mouse assessed as drug level in portal blood at 5 uM by liquid scintillation counting analysis. It counts as ADME, tissue-based.
Series [12] addresses Multidrug resistance-associated protein 1 (Homo sapiens, UniProt P33527). Put plainly: Activity of recombinant human ABCC1 expressed in baculovirus infected insect Sf21 cell plasma membrane vesicles assessed as transporter-mediated drug uptake at 10 uM by liquid scintillation counting analysis in presence of ATP. It counts as ADME. To be noted: sf21, 10 µM, TDE = time-dependent effect.

Series [13] can be described thus: Drug excretion in Abcc3/Abcc4-deficient mouse urine at 5 uM by liquid scintillation counting analysis. To be noted: in vivo. It counts as ADME, tissue-based.
In series [14] the test system is Jejunum. In words: Drug transport across apical to basolateral side in Abcc3/Abcc4-deficient mouse jejunal tissue explants at 50 uM by ussing chamber analysis. The series is classed as ADME.
Series [15] concerns Kidney. In words: Drug level in Abcc4-deficient mouse kidney at 5 uM by liquid scintillation counting analysis. The series is classed as ADME, tissue-based. Conditions: in vivo.
Series [16] deals with Intestine. In words: Drug level in wild type mouse intestine at 5 uM by liquid scintillation counting analysis. Conditions: in vivo. The series is classed as ADME, tissue-based.
Series [17] can be described thus: Drug excretion in Abcc4-deficient mouse urine at 5 uM by liquid scintillation counting analysis. The series is classed as ADME, tissue-based. To be noted: in vivo.
Series [18] is described as follows: Drug excretion in wild type mouse urine at 5 uM by liquid scintillation counting analysis. The series is classed as ADME, tissue-based. To be noted: in vivo.
Series [19] concerns Kidney. Put plainly: Drug level in Abcc3-deficient mouse kidney at 5 uM by liquid scintillation counting analysis. The series is classed as ADME, tissue-based. To be noted: in vivo.
Series [20] deals with Liver. Put plainly: Drug level in Abcc3-deficient mouse liver at 5 uM by liquid scintillation counting analysis. It counts as ADME, tissue-based. Conditions: in vivo.
Series [21] deals with Jejunum. In words: Drug transport across apical to basolateral side in Abcc4-deficient mouse jejunal tissue explants at 50 uM by ussing chamber analysis. It counts as ADME.
Series [22] concerns Kidney. Put plainly: Drug level in wild type mouse kidney at 5 uM by liquid scintillation counting analysis. It counts as ADME, tissue-based. To be noted: in vivo.
Series [23] deals with Liver. Put plainly: Drug level in Abcc3/Abcc4-deficient mouse liver at 5 uM by liquid scintillation counting analysis. The series is classed as ADME, tissue-based. Conditions: in vivo.
In series [24] the target is T2, ATP-binding cassette sub-family C member 3. In words: Activity of recombinant human ABCC3 expressed in baculovirus infected insect Sf21 cell plasma membrane vesicles assessed as transporter-mediated drug uptake at 10 uM by liquid scintillation counting analysis in presence of ATP. It counts as ADME. To be noted: sf21, 10 µM, TDE = time-dependent effect.
Series [25] relates to Liver. Put plainly: Drug level in Abcc4-deficient mouse liver at 5 uM by liquid scintillation counting analysis. It counts as ADME, tissue-based. To be noted: in vivo.
Series [26] in a line: Ratio of recombinant human ABCC4-mediated drug uptake in insect Sf21 cell plasma membrane vesicles to recombinant human ABCC3-mediated drug uptake in insect Sf21 cell plasma membrane vesicles. It counts as ADME, cell membranes.
Series [27] deals with Jejunum. Put plainly: Drug transport across apical to basolateral side in Abcc3/Abcc4-deficient mouse jejunal tissue explants at 5 uM by ussing chamber analysis relative to wild type mouse. The series is classed as ADME.
In series [28] the test system is Jejunum. Put plainly: Drug transport across ligated jejunum in wild type mouse assessed as drug level in portal blood at 5 uM by liquid scintillation counting analysis. It counts as ADME, tissue-based. To be noted: TDE = time-dependent effect.
In series [29] the test system is Jejunum. Put plainly: Drug transport across apical to basolateral side in Abcc4-deficient mouse jejunal tissue explants at 5 uM by ussing chamber analysis relative to wild type mouse. The series is classed as ADME.
Series [30] concerns Jejunum. Put plainly: Drug transport across ligated jejunum in Abcc3/Abcc4-deficient mouse assessed as drug level in peripheral blood at 5 uM by liquid scintillation counting analysis. The series is classed as ADME, tissue-based. To be noted: other.
Series [31] concerns Intestine. Put plainly: Drug level in Abcc3-deficient mouse intestine at 5 uM by liquid scintillation counting analysis. It counts as ADME, tissue-based. To be noted: in vivo.
The subject of series [32] is Kidney. In words: Drug level in Abcc3/Abcc4-deficient mouse kidney at 5 uM by liquid scintillation counting analysis. The series is classed as ADME, tissue-based. Conditions: in vivo.
For series [33], the system named is Jejunum. Put plainly: Drug transport across ligated jejunum in wild type mouse assessed as drug level in peripheral blood at 5 uM by liquid scintillation counting analysis. Conditions: other. The series is classed as ADME, tissue-based.
In series [34] the test system is Intestine. Put plainly: Drug level in Abcc4-deficient mouse intestine at 5 uM by liquid scintillation counting analysis. The series is classed as ADME, tissue-based. Conditions: in vivo.
Series [35] concerns Liver. In words: Drug level in wild type mouse liver at 5 uM by liquid scintillation counting analysis. The series is classed as ADME, tissue-based. Conditions: in vivo.

T2 sequence (O15438 whole entry): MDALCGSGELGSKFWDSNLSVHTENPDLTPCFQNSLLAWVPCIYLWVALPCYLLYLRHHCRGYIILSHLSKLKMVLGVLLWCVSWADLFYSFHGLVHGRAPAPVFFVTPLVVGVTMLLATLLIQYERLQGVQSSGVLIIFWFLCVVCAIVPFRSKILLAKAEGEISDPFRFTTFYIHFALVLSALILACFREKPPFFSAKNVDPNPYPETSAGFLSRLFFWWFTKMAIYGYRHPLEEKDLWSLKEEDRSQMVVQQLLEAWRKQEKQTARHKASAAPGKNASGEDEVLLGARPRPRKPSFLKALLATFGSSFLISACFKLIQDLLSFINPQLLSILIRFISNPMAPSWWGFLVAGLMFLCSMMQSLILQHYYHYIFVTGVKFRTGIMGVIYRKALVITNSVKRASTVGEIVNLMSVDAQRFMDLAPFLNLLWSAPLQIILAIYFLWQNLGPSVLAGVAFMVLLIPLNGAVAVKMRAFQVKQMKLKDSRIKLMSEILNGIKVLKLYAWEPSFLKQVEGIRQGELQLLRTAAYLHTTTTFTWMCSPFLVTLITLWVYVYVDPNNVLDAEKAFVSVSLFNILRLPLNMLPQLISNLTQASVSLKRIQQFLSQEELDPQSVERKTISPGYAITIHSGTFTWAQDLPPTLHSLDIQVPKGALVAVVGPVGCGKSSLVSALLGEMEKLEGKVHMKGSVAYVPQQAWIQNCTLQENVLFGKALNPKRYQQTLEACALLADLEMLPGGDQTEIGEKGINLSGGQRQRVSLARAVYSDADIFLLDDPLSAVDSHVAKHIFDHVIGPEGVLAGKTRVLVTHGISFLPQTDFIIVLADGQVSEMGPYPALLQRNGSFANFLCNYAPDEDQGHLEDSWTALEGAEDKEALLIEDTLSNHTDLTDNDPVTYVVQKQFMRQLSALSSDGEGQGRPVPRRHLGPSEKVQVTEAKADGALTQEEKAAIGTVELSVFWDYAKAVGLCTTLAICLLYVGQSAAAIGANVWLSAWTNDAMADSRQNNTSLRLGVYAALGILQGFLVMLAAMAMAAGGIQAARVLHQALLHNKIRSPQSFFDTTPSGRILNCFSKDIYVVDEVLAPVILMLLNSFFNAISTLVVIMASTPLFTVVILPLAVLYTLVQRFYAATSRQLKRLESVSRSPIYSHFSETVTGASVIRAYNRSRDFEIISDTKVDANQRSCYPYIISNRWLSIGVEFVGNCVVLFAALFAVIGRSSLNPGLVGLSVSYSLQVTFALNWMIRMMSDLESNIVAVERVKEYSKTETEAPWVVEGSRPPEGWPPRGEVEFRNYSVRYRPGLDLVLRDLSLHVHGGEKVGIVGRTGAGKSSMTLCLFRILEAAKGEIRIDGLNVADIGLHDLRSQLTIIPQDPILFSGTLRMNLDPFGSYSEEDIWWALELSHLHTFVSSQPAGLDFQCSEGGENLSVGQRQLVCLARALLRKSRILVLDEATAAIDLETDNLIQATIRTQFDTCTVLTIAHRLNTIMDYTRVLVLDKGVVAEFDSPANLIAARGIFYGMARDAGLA
ATP-binding cassette sub-family C member 2, sequence (Q92887 whole entry): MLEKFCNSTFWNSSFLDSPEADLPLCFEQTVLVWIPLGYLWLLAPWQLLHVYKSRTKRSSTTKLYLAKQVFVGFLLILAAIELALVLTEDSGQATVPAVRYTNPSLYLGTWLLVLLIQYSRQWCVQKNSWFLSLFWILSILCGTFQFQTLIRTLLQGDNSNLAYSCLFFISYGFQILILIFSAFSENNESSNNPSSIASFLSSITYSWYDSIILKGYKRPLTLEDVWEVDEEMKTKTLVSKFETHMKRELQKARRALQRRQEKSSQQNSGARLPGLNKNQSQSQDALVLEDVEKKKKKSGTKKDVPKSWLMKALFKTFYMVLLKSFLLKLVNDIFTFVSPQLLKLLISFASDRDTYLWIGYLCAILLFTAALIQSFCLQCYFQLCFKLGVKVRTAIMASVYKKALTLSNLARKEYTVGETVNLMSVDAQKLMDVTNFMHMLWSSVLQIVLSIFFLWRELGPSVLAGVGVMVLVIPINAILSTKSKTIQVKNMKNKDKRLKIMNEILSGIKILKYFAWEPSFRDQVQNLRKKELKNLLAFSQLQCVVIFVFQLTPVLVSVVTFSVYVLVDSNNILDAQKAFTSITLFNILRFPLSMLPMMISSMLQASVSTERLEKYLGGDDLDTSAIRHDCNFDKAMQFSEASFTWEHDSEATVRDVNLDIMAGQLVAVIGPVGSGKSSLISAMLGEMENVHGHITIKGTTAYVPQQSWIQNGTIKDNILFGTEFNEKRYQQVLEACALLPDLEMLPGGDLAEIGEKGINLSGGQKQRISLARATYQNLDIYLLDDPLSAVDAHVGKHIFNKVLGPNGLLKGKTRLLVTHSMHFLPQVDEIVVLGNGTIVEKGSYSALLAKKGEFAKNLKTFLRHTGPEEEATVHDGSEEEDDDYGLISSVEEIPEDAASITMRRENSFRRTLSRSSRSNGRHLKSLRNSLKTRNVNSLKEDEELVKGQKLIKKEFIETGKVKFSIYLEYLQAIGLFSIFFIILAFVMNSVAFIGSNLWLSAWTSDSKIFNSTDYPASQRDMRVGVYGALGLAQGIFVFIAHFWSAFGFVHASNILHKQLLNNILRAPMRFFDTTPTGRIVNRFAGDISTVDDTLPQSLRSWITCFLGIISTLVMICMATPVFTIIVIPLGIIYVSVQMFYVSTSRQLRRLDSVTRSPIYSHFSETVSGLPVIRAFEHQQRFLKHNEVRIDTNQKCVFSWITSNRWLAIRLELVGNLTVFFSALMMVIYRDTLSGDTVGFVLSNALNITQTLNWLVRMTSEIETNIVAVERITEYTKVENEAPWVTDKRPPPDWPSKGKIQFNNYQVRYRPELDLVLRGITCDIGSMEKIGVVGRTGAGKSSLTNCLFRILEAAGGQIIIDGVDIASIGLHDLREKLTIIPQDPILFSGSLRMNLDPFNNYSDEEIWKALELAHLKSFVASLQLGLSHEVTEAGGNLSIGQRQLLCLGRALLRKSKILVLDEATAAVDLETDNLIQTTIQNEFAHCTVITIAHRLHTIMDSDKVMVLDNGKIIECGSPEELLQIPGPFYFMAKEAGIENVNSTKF
Multidrug resistance-associated protein 1, sequence (P33527 whole entry): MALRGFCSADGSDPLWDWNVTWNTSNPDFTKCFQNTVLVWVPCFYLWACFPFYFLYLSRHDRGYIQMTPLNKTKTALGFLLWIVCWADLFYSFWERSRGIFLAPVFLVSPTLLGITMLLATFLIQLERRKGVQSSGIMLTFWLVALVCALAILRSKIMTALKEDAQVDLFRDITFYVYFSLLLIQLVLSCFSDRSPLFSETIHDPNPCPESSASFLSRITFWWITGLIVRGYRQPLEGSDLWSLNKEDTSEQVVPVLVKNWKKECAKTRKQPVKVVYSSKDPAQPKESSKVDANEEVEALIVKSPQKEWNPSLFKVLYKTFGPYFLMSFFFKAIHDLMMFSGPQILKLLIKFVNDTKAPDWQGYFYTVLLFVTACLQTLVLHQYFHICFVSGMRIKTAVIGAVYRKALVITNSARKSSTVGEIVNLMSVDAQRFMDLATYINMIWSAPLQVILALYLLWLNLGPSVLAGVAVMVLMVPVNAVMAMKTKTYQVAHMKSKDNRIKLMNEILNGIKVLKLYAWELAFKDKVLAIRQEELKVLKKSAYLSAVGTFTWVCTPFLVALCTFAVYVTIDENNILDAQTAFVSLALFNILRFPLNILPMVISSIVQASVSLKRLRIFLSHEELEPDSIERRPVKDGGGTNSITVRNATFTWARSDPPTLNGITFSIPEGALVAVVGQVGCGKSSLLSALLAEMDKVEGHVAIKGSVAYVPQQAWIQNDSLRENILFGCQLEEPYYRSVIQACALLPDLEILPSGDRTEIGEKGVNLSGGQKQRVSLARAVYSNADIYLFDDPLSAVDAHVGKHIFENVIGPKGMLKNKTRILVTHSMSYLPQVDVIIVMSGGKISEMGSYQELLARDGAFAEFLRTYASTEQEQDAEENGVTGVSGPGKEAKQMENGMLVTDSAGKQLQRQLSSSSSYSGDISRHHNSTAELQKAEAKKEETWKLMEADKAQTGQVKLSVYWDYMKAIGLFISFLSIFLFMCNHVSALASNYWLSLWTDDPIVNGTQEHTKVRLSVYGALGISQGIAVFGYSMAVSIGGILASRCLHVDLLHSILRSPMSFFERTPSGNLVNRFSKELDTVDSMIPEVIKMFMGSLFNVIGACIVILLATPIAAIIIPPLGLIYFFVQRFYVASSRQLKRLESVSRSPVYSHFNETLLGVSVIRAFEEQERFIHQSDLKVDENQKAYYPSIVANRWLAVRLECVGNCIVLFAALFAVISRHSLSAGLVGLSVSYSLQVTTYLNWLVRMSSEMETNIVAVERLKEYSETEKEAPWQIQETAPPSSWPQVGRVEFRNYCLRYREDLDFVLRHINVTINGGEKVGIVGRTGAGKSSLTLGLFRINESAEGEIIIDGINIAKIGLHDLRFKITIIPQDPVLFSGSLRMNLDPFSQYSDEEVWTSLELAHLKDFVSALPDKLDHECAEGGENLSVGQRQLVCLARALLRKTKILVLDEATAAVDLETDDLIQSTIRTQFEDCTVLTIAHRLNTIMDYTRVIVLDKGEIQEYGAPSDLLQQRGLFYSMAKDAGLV

Consider `CO[C@@]1(NC(=O)Cc2cccs2)C(=O)N2C(C(=O)O)=C(COC(N)=O)CS[C@@H]21` [CEFOXITIN], for which the “inhibition (INH)” value in [1], in series [2] and in series [3] was “Active” in each case.

On to `CC1=C(C(=O)O)N2C(=O)[C@@H](NC(=O)[C@H](N)c3ccccc3)[C@H]2SC1` [CEPHALEXIN ANHYDROUS], for which the “inhibition (INH)” value in [1], in series [2] and in series [3] was “Active” each time.

`N[C@@H](C(=O)N[C@@H]1C(=O)N2C(C(=O)O)=C(Cl)CS[C@H]12)c1ccccc1` [CEFACLOR ANHYDROUS]: the “inhibition (INH)” value in series [1], in series [2] and in series [3] was “Active” each time.

In the case of `CO/N=C(\C(=O)N[C@@H]1C(=O)N2C(C(=O)O)=C(COC(N)=O)CS[C@H]12)c1ccco1` [CEFUROXIME], the “inhibition (INH)” value in [1], in [2] and in [3] was “Active” each time.

With `CCN1CCN(C(=O)N[C@@H](C(=O)N[C@@H]2C(=O)N3C(C(=O)O)=C(CSc4nnnn4C)CS[C@H]23)c2ccc(O)cc2)C(=O)C1=O` [CEFOPERAZONE], the “inhibition (INH)” value in [1], in series [2] and in series [3] was “Active” throughout.

Consider `Cn1nnnc1SCC1=C(C(=O)O)N2C(=O)[C@@H](NC(=O)[C@H](O)c3ccccc3)[C@H]2SC1` [CEFAMANDOLE], for which the “inhibition (INH)” value in [1], in series [2] and in series [3] was “Active” each time.

`CO/N=C(\C(=O)N[C@@H]1C(=O)N2C(C(=O)O)=C(CSc3nc(=O)c(=O)[nH]n3C)CS[C@H]12)c1csc(N)n1` [CEFTRIAXONE]: the “inhibition (INH)” value in series [1], in series [2] and in series [3] was “Active” in each case.

`CC1=C(C(=O)O)N2C(=O)[C@@H](NC(=O)[C@H](N)c3ccc(O)cc3)[C@H]2SC1` [CEFADROXIL]: the Activity result in series [4], in series [12] and in [24] was “tde” throughout. Besides, the Drug uptake is reported as less than 0.4% in series [5]; “Active” in series [8]; “Active” in series [15]; “Active” in series [16]; “Active” in series [19]; “Active” in [20]. The Drug uptake result in series [22], in series [23], in series [25], in series [31], in [32] and in [34] was “Active” throughout. For the same compound, the Drug uptake result in [35] was “Active”. Moreover, the Drug excretion result in series [6], in [13], in series [17] and in series [18] was “metabolite_detected” throughout. The Drug transport result is given as “Active” in series [7]; “Active” in series [10]; “Not Active” in series [11]; “Active” in series [14]; “Active” in series [21]; 50% in series [27]. Further, the Drug transport entry in [28] was “tde”; in series [29] it was 50%; in [30], “Not Active”; in series [33], “Active”. For the same compound, the results for the Ratio in series [9] and in series [26] were 3 and 6, respectively.

Consider `CC1=C(C(=O)O)N2C(=O)[C@@H](NC(=O)[C@H](N)C3=CCC=CC3)[C@H]2SC1` [CEPHRADINE], for which the “inhibition (INH)” value in series [1], in series [2] and in [3] was “Active” in each case.

In the case of `CO[C@@]1(NC(=O)CSCC#N)C(=O)N2C(C(=O)O)=C(CSc3nnnn3C)CS[C@@H]21` [CEFMETAZOLE], the “inhibition (INH)” value in series [1], in [2] and in series [3] was “Active” throughout.
